The record followed here is the RepoRT retention time repository.

Structures are written as SMILES.

The data set can be described thus: HILIC, Waters ACQUITY UPLC BEH Amide, 100 × 2.1 mm, 1.7 µm; A: water + 0.125% formic acid + 10 mM ammonium formate; B: 5% water + 95% acetonitrile + 0.125% formic acid + 10 mM ammonium formate; gradient (min/%B) 0/100 2/100 7.7/70 9.5/40 10.25/30 12.75/100 17/100. Conditions: stereoisomer not certain.
Turning to `Nc1ccc(O)c(C(=O)O)c1`, the LC retention time was found to be 3.89 min.

As to `Nc1nc2ccc(Cl)cc2c2nc(-c3ccco3)nn12`, the LC retention time is 1.07 min.

As for `NC1CCN(c2cccc(Cl)n2)CC1`, the LC retention time was found to be 4.85 min.

`C=C(C)CN1CCC23c4c5ccc(O)c4OC2c2[nH]c4ccccc4c2CC3(O)C1C5` (centres undefined): the LC retention time is 2.93 min.

For `CC(=O)NCCCCCCNC(C)=O`, the LC retention time is 1.5 min.

Turning to `COCC1=C(C(=O)OC(C)OC(=O)OC(C)C)N2C(=O)C(NC(=O)C(=NOC)c3csc(N)n3)C2SC1` (centres undefined), the LC retention time worked out at 1.12 min.

Consider `Cc1sc(N)c(C(=O)c2cccc(C(F)(F)F)c2)c1C`, for which the LC retention time was found to be 0.94 min.

Regarding `Cc1cc2nc3c(=O)[nH]c(=O)nc-3n(CC(O)C(O)C(O)COP(=O)(O)OP(=O)(O)OCC3OC(n4cnc5c(N)ncnc54)C(O)C3O)c2cc1C` (centres undefined), the LC retention time is 9.52 min.

Take `Br.CN1CCC2(c3cccc(O)c3)Cc3nc4ccccc4cc3CC2C1.O` (centres undefined): the LC retention time came out at 5.11 min.

For the molecule `CN1CCN(c2nc3cc(C(F)(F)F)ccc3n3cccc23)CC1`, the LC retention time turned out to be 2.21 min.

As for `COC(=O)N1CCN(C(=O)Cc2ccc(Cl)c(Cl)c2)C(CN2CCCC2)C1` (centres undefined), the LC retention time is 2.56 min.

For the molecule `COc1ccc2[nH]cc(C3=CCNCC3)c2c1`, the LC retention time was determined as 4.61 min.

For the molecule `OC1CCCCC1O` (centres undefined) [1,2-Cyclohexanediol], the LC retention time turned out to be 4.88 min.

Consider `O=C1CCCCC1=O` [1,2-Cyclohexanedione], for which the LC retention time was 5.77 min.

Regarding `O=C1CCCC(=O)C1` [1,3 Cyclohexanedione], the LC retention time came out at 1.47 min.

With `CC12CCC3c4ccc(O)cc4CCC3C1CCC2=O` (centres undefined) [1,3,5(10)-Estratrien-3-ol-17-one], the LC retention time turned out to be 1.01 min.

`Cn1c(=O)c2c([nH]c(=O)n2C)n(C)c1=O` [1,3,7-Trimethyluric acid]: the LC retention time came to 1.83 min.

For the molecule `O=C(O)C1CCC(C(=O)O)CC1` (centres undefined) [1,4-Cyclohexanedicarboxylic acid], the LC retention time is 1.56 min.

Consider `O=C1CCC(=O)CC1` [1,4-Cyclohexanedione], for which the LC retention time was determined as 1.15 min.

For the molecule `OCC1OCC(O)C(O)C1O` (centres undefined) [1,5-Anhydrosorbitol], the LC retention time came out at 0.92 min.

Regarding `Cn1c(=O)[nH]c2[nH]c(=O)n(C)c2c1=O` [1,7-Dimethyluric acid], the LC retention time stood at 4.09 min.

As to `Cn1c(=O)[nH]c2ncn(C)c2c1=O` [1,7-Dimethylxanthine], the LC retention time is 1.69 min.

On to `CC(=O)n1ccnc1` [1-Acetylimidazole], for which the LC retention time worked out at 1.37 min.

As to `c1ccc(Cn2ccnc2)cc1` [1-Benzylimidazole], the LC retention time came to 1.63 min.

On to `Cn1cnc(C[C@H](N)C(=O)O)c1` [1-Methyl-L-histidine], for which the LC retention time was 9.1 min.

`Cn1cnc2c(ncn2C2OC(CO)C(O)C2O)c1=N` (centres undefined) [1-Methyladenosine]: the LC retention time stood at 7.46 min.

Regarding `Cn1c(N)nc2c(ncn2C2OC(CO)C(O)C2O)c1=O` (centres undefined) [1-Methylguanosine], the LC retention time was 5.84 min.

Consider `C[n+]1cccc(C(N)=O)c1` [1-Methylnicotinamide], for which the LC retention time came out at 6.26 min.

For the molecule `Cn1cc(C2OC(CO)C(O)C2O)c(=O)[nH]c1=O` (centres undefined) [1-Methylpseudouridine], the LC retention time was 4.99 min.

`Cn1cc(CC(N)C(=O)O)c2ccccc21` (centres undefined) [1-Methyltryptophan]: the LC retention time is 6.38 min.

For `Cn1c(=O)[nH]c2[nH]c(=O)[nH]c2c1=O` [1-Methyluric acid], the LC retention time is 2.18 min.

As to `CCCCCCCCCCCCCCCCCC(=O)OCC(O)CO` (centres undefined) [1-Monostearin], the LC retention time is 0.99 min.

Take `O=c1[nH]cnc2c1ncn2C1CCC(CO)O1` (centres undefined) [2',3'-Dideoxyinosine]: the LC retention time is 3.44 min.

Take `Nc1ncnc2c1ncn2C1CC(O)C(COP(=O)(O)O)O1` (centres undefined) [2'-Deoxyadenosine-5'-monophosphate]: the LC retention time was determined as 8.63 min.

As to `Nc1ncnc2c1ncn2C1CC(O)C(CO)O1` (centres undefined) [2'-Deoxyadenosine], the LC retention time was found to be 3.92 min.

Turning to `Nc1ccn(C2CC(O)C(CO)O2)c(=O)n1` (centres undefined) [2'-Deoxycytidine], the LC retention time worked out at 5.87 min.

With `Nc1nc2c(ncn2C2CC(OP(=O)(O)O)C(CO)O2)c(=O)[nH]1` (centres undefined) [2'-Deoxyguanosine 3'-monophosphate], the LC retention time was 9.43 min.

Turning to `Nc1nc2c(ncn2C2CC(O)C(COP(=O)(O)O)O2)c(=O)[nH]1` (centres undefined) [2'-Deoxyguanosine 5'-monophosphate], the LC retention time came out at 9.25 min.

In the case of `Nc1nc2c(ncn2C2CC(O)C(CO)O2)c(=O)[nH]1` (centres undefined) [2'-Deoxyguanosine], the LC retention time came out at 6.4 min.

Regarding `COC1C(O)C(CO)OC1n1cc(C)c(N)nc1=O` (centres undefined) [2'-O-Methyl-5-methylcytidine], the LC retention time is 4.93 min.

On to `COC1C(O)C(CO)OC1n1cc(C)c(=O)[nH]c1=O` (centres undefined) [2'-O-Methyl-5-methyluridine], for which the LC retention time was 1.75 min.

`COC1C(O)C(CO)OC1n1ccc(N)nc1=O` (centres undefined) [2'-O-Methylcytidine]: the LC retention time is 5.02 min.

On to `COC1C(O)C(CO)OC1n1cnc2c(=O)[nH]c(N)nc21` (centres undefined) [2'-O-Methylguanosine], for which the LC retention time amounted to 5.72 min.

For the molecule `COC1C(O)C(CO)OC1n1cnc2c(=O)[nH]cnc21` (centres undefined) [2'-O-Methylinosine], the LC retention time stood at 4.06 min.

Turning to `COC1C(O)C(CO)OC1n1ccc(=O)[nH]c1=O` (centres undefined) [2'-O-Methyluridine], the LC retention time was 2.24 min.

In the case of `CC(O)C(C)O` (centres undefined) [2,3-Butanediol], the LC retention time was determined as 3.34 min.

Consider `Nc1ccn(C2CCC(CO)O2)c(=O)n1` (centres undefined) [2,3-Dideoxycytidine], for which the LC retention time came to 4.54 min.

Consider `O=c1ccn(C2CCC(CO)O2)c(=O)[nH]1` (centres undefined) [2,3-Dideoxyuridine], for which the LC retention time came out at 1.73 min.

Regarding `NC(CCCC(N)C(=O)O)C(=O)O` (centres undefined) [2,6-Diaminopimelic acid], the LC retention time was 9.88 min.

With `O=c1ccc2cccc(O)c2[nH]1` [2,8-Quinolinediol], the LC retention time was found to be 1.53 min.

In the case of `NCCc1ccccn1` [2-(2-Aminoethyl)pyridine], the LC retention time stood at 5.52 min.

As for `COc1cccc(C(=O)O)c1N` [2-Amino-3-methoxybenzoic acid], the LC retention time was found to be 1.27 min.

`NCC(=O)c1ccccc1` [2-Aminoacetophenone]: the LC retention time is 1.08 min.

For the molecule `NCCS` [2-Aminoethanethiol], the LC retention time worked out at 2.05 min.

For the molecule `NCCP(=O)(O)O` [2-Aminoethylphosphonic acid], the LC retention time stood at 9.39 min.

Consider `Nc1ccccc1O` [2-Aminophenol], for which the LC retention time was 1.22 min.

For `OCC1OC(n2cnc3c(NC4CCCC4)nc(Cl)nc32)C(O)C1O` (centres undefined) [2-Chloro-N6-cyclopentyladenosine], the LC retention time worked out at 1.47 min.

Consider `Nc1nc(Cl)nc2c1ncn2C1OC(CO)C(O)C1O` (centres undefined) [2-Chloroadenosine], for which the LC retention time amounted to 2.69 min.

Regarding `Nc1ccn(C2CC(O)C(COP(=O)(O)O)O2)c(=O)n1` (centres undefined) [2-Deoxycytidine-5-monophosphoric acid], the LC retention time was 9.16 min.

In the case of `O=CCC(O)C(O)CO` (centres undefined) [2-Deoxyribose], the LC retention time amounted to 1.42 min.

For the molecule `O=c1ccn(C2CC(O)C(CO)O2)c(=O)[nH]1` (centres undefined) [2-Deoxyuridine], the LC retention time worked out at 2.96 min.

Consider `CCCC=CC=O` [2-Hexenal], for which the LC retention time was 1.39 min.

In the case of `CC(C)C(O)C(=O)O` (centres undefined) [2-Hydroxy-3-methylbutyric acid], the LC retention time came out at 1.29 min.

Take `CC(C)CC(O)C(=O)O` (centres undefined) [2-Hydroxy-4-methylpentanoic acid]: the LC retention time worked out at 1.57 min.

Regarding `O=C(CO)c1ccccc1` [2-Hydroxyacetophenone], the LC retention time came out at 4.36 min.

As to `O=C(C=Cc1ccccc1O)c1ccccc1` [2-Hydroxychalcone], the LC retention time is 1.01 min.

For the molecule `O=C(O)CCC(O)C(=O)O` (centres undefined) [2-Hydroxyglutaric acid], the LC retention time is 0.91 min.

Take `O=c1ccc2ccccc2[nH]1` [2-Hydroxyquinoline]: the LC retention time was found to be 1.51 min.

In the case of `Oc1cc2ccccc2[nH]1` [2-Indolinone], the LC retention time is 1.36 min.

Turning to `C=Cc1ccc(O)c(OC)c1` [2-Methoxy-4-vinylphenol], the LC retention time was 8.71 min.

Take `CCCCCCCCCCCCCC(=O)OC(CO)CO` [2-Myristoylglycerol]: the LC retention time worked out at 1.01 min.

For the molecule `CCCCCCCCCCCCCCCC(=O)OC(CO)CO` [2-Palmitoylglycerol], the LC retention time came out at 0.99 min.

`NC(=O)Cc1ccccc1` [2-Phenylacetamide]: the LC retention time came out at 1.26 min.

For the molecule `CCC(=O)NCC(=O)O` [2-Propanamidoacetic acid], the LC retention time came to 5.37 min.

Consider `O=c1cccc[nH]1` [2-Pyridone], for which the LC retention time turned out to be 2.05 min.

For `Nc1ccn(C2OC(CO)C(O)C2O)c(=S)n1` (centres undefined) [2-Thiocytidine], the LC retention time turned out to be 5.33 min.

Consider `O=c1ccn(C2OC(CO)C(O)C2O)c(=S)[nH]1` (centres undefined) [2-Thiouridine], for which the LC retention time turned out to be 2.48 min.

Regarding `OCC1OC(OC2C(O)OC(CO)C(O)C2O)C(O)C(O)C1O` (stereo not drawn) [2-alpha-Mannobiose], the LC retention time stood at 9.47 min.

As to `Nc1ncnc2c1ncn2C1CC2OP(=O)(O)OCC2O1` (centres undefined) [3',5'-Cyclic dAMP], the LC retention time was determined as 7.29 min.

As to `COC1C(CO)OC(n2ccc(N)nc2=O)C1O` (centres undefined) [3'-O-Methylcytidine], the LC retention time came to 5.09 min.

As to `COC1C(CO)OC(n2cnc3c(=O)[nH]c(N)nc32)C1O` (centres undefined) [3'-O-Methylguanosine], the LC retention time was 5.8 min.

As to `COC1C(CO)OC(n2ccc(=O)[nH]c2=O)C1O` (centres undefined) [3'-O-Methyluridine], the LC retention time worked out at 2.42 min.

Consider `O=C(O)C(O)c1ccc(O)c(O)c1` (centres undefined) [3,4-Dihydroxymandelic acid], for which the LC retention time was 2.3 min.

For the molecule `NC(Cc1ccc(O)c(O)c1)C(=O)O` (centres undefined) [3,4-Dihydroxyphenylalanine], the LC retention time worked out at 8.31 min.
